The values that follow come from article PMC5915149, “The role of oxidative stress in activity of anticancer thiosemicarbazones” (Oncotarget, 2018).

For assay [1], the system named is HCT116. The arrangement: method as in PMID 25329549. Particulars: 96 h incubation, MTS; cited from earlier work.
A further assay relates to cdc2. Briefly: Western blot of cdc2. Conditions: HCT116, 1 µM. The class given is cell-based, human. In short, it runs like this:
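HCT116 cells exposed to TSC (1 μM) or DOX (5 μM) for 24 or 48 h, lysed in RIPA with protease/phosphatase inhibitors. 20 μg protein per lane blotted, probed overnight at 4 °C with 1:1000 primary antibodies, β-actin loading control; ECL detection with densitometry, at least three repeats.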
(In general: Immunoblotting shows a protein as a band on a membrane.)

The test system of the next assay is NHDF. The arrangement: method as in PMID 25329549. Particulars: 96 h incubation, MTS; cited from earlier work.
The subject of assay [2] is HCT116 cells. Put plainly: Time dependent measurement of ROS level. The class given is cell-based, human. Particulars: 1 µM; 3, 6, 9, 12, 24 h. As for the experimental part:
To determine the intracellular levels of ROS, HCT116 cells were seeded onto black 96-well plates (Corning) at a density of 9,000 cells/well and incubated at 37° C. After an overnight incubation, the solutions of the tested compounds: 1a-c, 2 a-b, 3 a-c, Dp44mT (1 μM) and DOX (5 μM) were added and incubated for 3, 6, 9, 12, and 24 h in a kinetic experiment. The generation of ROS was measured using a CellROX® Green Reagent (Molecular Probes™). Additionally, the quantity of cells in each well was determined using Hoechst 33342 (Molecular Probes™). The solutions of the tested compounds were removed and 100 µL of CellROX Green Reagent and Hoechst 33342 at a final concentration of 5 μM were added to each well. Then, the cells were incubated for 30 min at 37° C. The fluorescence was measured using a multi-plate reader (Synergy 4, Bio Tek) at 485 nm excitation and a 520 nm emission for CellROX Green Reagent and a 345 nm excitation laser and a 485 nm emission filter for Hoechst 33342. The experiments were performed three to four times. ROS levels were expressed as the percentage of the control cells level.

In assay [3] the test system is HCT116. Put plainly: MTS antiproliferative assay, HCT116 (with or without added metal ions). The assay is classed as cell-based, human. Particulars: 96 h. In outline: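 Cells seeded at 3,500/well, left 24 h at 37°C, then exposed to compounds for 96 h, optionally with 20 µM CuSO4, FeSO4 or FeCl3 added. Viability by MTS absorbance at 490 nm after 1 h; IC50 taken as concentration reducing proliferation to 50% of untreated control.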
On the technique in general: Formazan colour is commonly taken as a measure of viable cells.

For assay [4], the system named is HCT116 cells. Put plainly: Cell cycle assay (Muse Cell-Cycle Kit). The class given is cell-based, human. Particulars: HCT116, TSC 1 µM, 48 h. As for the experimental part:
The HCT116 cells were seeded in 3 cm Petri dishes (Nunc) at a density of 0.25·10^6 cells/well and incubated at 37° C for 24 h. […] After a 48 h treatment, assays were performed using a Muse Cell-Cycle Kit (Millipore) according to the manufacturer’s instructions. Briefly, cells were collected, washed with cold PBS and centrifuged at 300 g. Then, the cells were fixed in ice cold 70% ethanol and stored at –20° C overnight. Afterwards, the cells were centrifuged and resuspended in 200 μL of Muse™ Cell Cycle Reagent and incubated for 30 min at room temperature in the dark. After staining, the cells were processed for cell cycle analysis using a Muse Cell Analyzer (Millipore). The experiments were performed at least three times.

Like-named read-outs stand apart in the source and are kept apart here.

As for `S=C(NN=C(c1ccccn1)c1ccccn1)N1CCN(c2ccccc2)CC1` [Compound 3a], the IC50 (as a rule, the concentration that gives 50% inhibition) in the assay with HCT116 [1] is 0.81 ± 0.13 nM; in the assay on NHDF, 1.73 ± 0.71 nM; in the assay with HCT116 [3] (20 µM CuSO4 added, read-out: Activity - IC50 HCT116+ Cu^2+), 0.68 ± 0.15 nM; with HCT116 [3] (20 µM FeCl3 added, read-out: Activity - IC50 HCT116+ Fe^3+), 2.07 ± 0.78 nM. The “expression of cdc2 protein (densitometric analysis)” value in the assay with cdc2 was “increased the expression”. In the assay with HCT116 cells [2], the “level of ROS, normalized to untreated cells” value is “strongest effect”. For the same compound, in the assay on HCT116 cells [4], the “cells in S phase” value was 33–35%. The “cells in G2/M phase” value with HCT116 cells [4] (untreated 7%) amounted to 17%.
